Data: ChEMBL document CHEMBL4138146, “A Schmidt rearrangement-mediated synthesis of novel tetrahydro-benzo[1,4]diazepin-5-ones as potential anticancer and antiprotozoal agents” (Eur J Med Chem, 2017)

Key:
Format in all cases: functional
[1] = test system: NCI-H460; experiment: Growth inhibition of human NCI-H460 cells assessed as cell growth at 10 uM incubated for 48 hrs by sulforhodamine B assay relative to control; conditions: NCI-H460, 48 h, read-out: Activity
[2] = test system: NCI/ADR-RES; experiment: Growth inhibition of human NCI/ADR-RES cells assessed as cell growth at 10 uM incubated for 48 hrs by sulforhodamine B assay relative to control; conditions: read-out: Activity
[3] = test system: TK-10; experiment: Growth inhibition of human TK10 cells assessed as cell growth at 10 uM incubated for 48 hrs by sulforhodamine B assay relative to control; conditions: TK-10, 48 h, read-out: Activity
[4] = test system: RXF 393; experiment: Growth inhibition of human RXF393 cells assessed as cell growth at 10 uM incubated for 48 hrs by sulforhodamine B assay relative to control; conditions: RXF 393, 48 h, read-out: Activity
[5] = test system: HT-29; experiment: Growth inhibition of human HT-29 cells assessed as cell growth at 10 uM incubated for 48 hrs by sulforhodamine B assay relative to control; conditions: HT-29, 48 h, read-out: Activity
[6] = test system: SK-MEL-28; experiment: Growth inhibition of human SK-MEL-28 cells assessed as cell growth at 10 uM incubated for 48 hrs by sulforhodamine B assay relative to control; conditions: SK-MEL-28, 48 h, read-out: Activity
[7] = test system: DU-145; experiment: Growth inhibition of human DU145 cells assessed as cell growth at 10 uM incubated for 48 hrs by sulforhodamine B assay relative to control; conditions: DU-145, 48 h, read-out: Activity
[8] = test system: SK-OV-3; experiment: Growth inhibition of human SKOV3 cells assessed as cell growth at 10 uM incubated for 48 hrs by sulforhodamine B assay relative to control; conditions: SK-OV-3, 48 h, read-out: Activity
[9] = test system: NCI-H322M; experiment: Growth inhibition of human NCI-H322M cells assessed as cell growth at 10 uM incubated for 48 hrs by sulforhodamine B assay relative to control; conditions: read-out: Activity
[10] = test system: SN12C; experiment: Growth inhibition of human SN12C cells assessed as cell growth at 10 uM incubated for 48 hrs by sulforhodamine B assay relative to control; conditions: read-out: Activity
[11] = test system: HOP-92; experiment: Growth inhibition of human HOP92 cells assessed as cell growth at 10 uM incubated for 48 hrs by sulforhodamine B assay relative to control; conditions: HOP-92, 48 h, read-out: Activity
[12] = test system: SK-MEL-2; experiment: Growth inhibition of human SK-MEL-2 cells assessed as cell growth at 10 uM incubated for 48 hrs by sulforhodamine B assay relative to control; conditions: SK-MEL-2, 48 h, read-out: Activity
[13] = test system: PC-3; experiment: Growth inhibition of human PC3 cells assessed as cell growth at 10 uM incubated for 48 hrs by sulforhodamine B assay relative to control; conditions: PC-3, 48 h, read-out: Activity
[14] = test system: RPMI-8226; experiment: Growth inhibition of human RPMI8226 cells assessed as cell growth at 10 uM incubated for 48 hrs by sulforhodamine B assay relative to control; conditions: RPMI-8226, 48 h, read-out: Activity
[15] = test system: CCRF-CEM; experiment: Growth inhibition of human CCRF-CEM cells assessed as cell growth at 10 uM incubated for 48 hrs by sulforhodamine B assay relative to control; conditions: read-out: Activity
[16] = test system: UO-31; experiment: Growth inhibition of human UO31 cells assessed as cell growth at 10 uM incubated for 48 hrs by sulforhodamine B assay relative to control; conditions: UO-31, 48 h, read-out: Activity
[17] = test system: LOX IMVI; experiment: Growth inhibition of human LOXIMVI cells assessed as cell growth at 10 uM incubated for 48 hrs by sulforhodamine B assay relative to control; conditions: read-out: Activity
[18] = test system: COLO 205; experiment: Growth inhibition of human COLO205 cells assessed as cell growth at 10 uM incubated for 48 hrs by sulforhodamine B assay relative to control; conditions: COLO 205, 48 h, read-out: Activity
[19] = test system: A549; experiment: Growth inhibition of human A549/ATCC cells assessed as cell growth at 10 uM incubated for 48 hrs by sulforhodamine B assay relative to control; conditions: A549, 48 h, read-out: Activity
[20] = test system: NCI-H522; experiment: Growth inhibition of human NCI-H522 cells assessed as cell growth at 10 uM incubated for 48 hrs by sulforhodamine B assay relative to control; conditions: NCI-H522, 48 h, read-out: Activity
[21] = test system: OVCAR-5; experiment: Growth inhibition of human OVCAR5 cells assessed as cell growth at 10 uM incubated for 48 hrs by sulforhodamine B assay relative to control; conditions: OVCAR-5, 48 h, read-out: Activity
[22] = test system: OVCAR-8; experiment: Growth inhibition of human OVCAR8 cells assessed as cell growth at 10 uM incubated for 48 hrs by sulforhodamine B assay relative to control; conditions: OVCAR-8, 48 h, read-out: Activity
[23] = test system: Malme-3M; experiment: Growth inhibition of human MALME-3M cells assessed as cell growth at 10 uM incubated for 48 hrs by sulforhodamine B assay relative to control; conditions: read-out: Activity
[24] = test system: SF-539; experiment: Growth inhibition of human SF539 cells assessed as cell growth at 10 uM incubated for 48 hrs by sulforhodamine B assay relative to control; conditions: SF-539, 48 h, read-out: Activity
[25] = test system: HOP-62; experiment: Growth inhibition of human HOP62 cells assessed as cell growth at 10 uM incubated for 48 hrs by sulforhodamine B assay relative to control; conditions: HOP-62, 48 h, read-out: Activity
[26] = test system: MDA-MB-468; experiment: Growth inhibition of human MDA-MB-468 cells assessed as cell growth at 10 uM incubated for 48 hrs by sulforhodamine B assay relative to control; conditions: MDA-MB-468, 48 h, read-out: Activity
[27] = test system: OVCAR-4; experiment: Growth inhibition of human OVCAR4 cells assessed as cell growth at 10 uM incubated for 48 hrs by sulforhodamine B assay relative to control; conditions: OVCAR-4, 48 h, read-out: Activity
[28] = test system: ACHN; experiment: Growth inhibition of human ACHN cells assessed as cell growth at 10 uM incubated for 48 hrs by sulforhodamine B assay relative to control; conditions: read-out: Activity
[29] = test system: CAKI-1; experiment: Growth inhibition of human Caki1 cells assessed as cell growth at 10 uM incubated for 48 hrs by sulforhodamine B assay relative to control; conditions: CAKI-1, 48 h, read-out: Activity
[30] = test system: A498; experiment: Growth inhibition of human A498 cells assessed as cell growth at 10 uM incubated for 48 hrs by sulforhodamine B assay relative to control; conditions: A498, 48 h, read-out: Activity
[31] = test system: BT-549; experiment: Growth inhibition of human BT549 cells assessed as cell growth at 10 uM incubated for 48 hrs by sulforhodamine B assay relative to control; conditions: BT-549, 48 h, read-out: Activity
[32] = test system: NCI-H226; experiment: Growth inhibition of human NCI-H226 cells assessed as cell growth at 10 uM incubated for 48 hrs by sulforhodamine B assay relative to control; conditions: NCI-H226, 48 h, read-out: Activity
[33] = test system: SNB-75; experiment: Growth inhibition of human SNB75 cells assessed as cell growth at 10 uM incubated for 48 hrs by sulforhodamine B assay relative to control; conditions: SNB-75, 48 h, read-out: Activity

SMILES | growth at 10 µM [1] [%] | growth at 10 µM [2] [%] | growth at 10 µM [3] [%] | growth at 10 µM [4] [%] | growth at 10 µM [5] [%] | growth at 10 µM [6] [%] | growth at 10 µM [7] [%] | growth at 10 µM [8] [%] | growth at 10 µM [9] [%] | growth at 10 µM [10] [%] | growth at 10 µM [11] [%] | growth at 10 µM [12] [%] | growth at 10 µM [13] [%] | growth at 10 µM [14] [%] | growth at 10 µM [15] [%] | growth at 10 µM [16] [%] | growth at 10 µM [17] [%] | growth at 10 µM [18] [%] | growth at 10 µM [19] [%] | growth at 10 µM [20] [%] | other results
Cc1ccc2[nH]c(=O)c(C3CNC(=O)c4ccccc4N3)cc2c1 (stereo unspecified) | 106 | 108 | 104 | 109 | 104 | 108 | 106 | 110 | 110 | 99.7 | 110 | 110 | 98.5 | 102 | 97.4 | 84.3 | 96.8 | 107 | 95.7 | 93.6 | growth at 10 µM [21]: 92.9%; growth at 10 µM [22]: 113%; growth at 10 µM [23]: 109%; growth at 10 µM [24]: 96.5%; growth at 10 µM [25]: 97.1%; growth at 10 µM [26]: 110%; growth at 10 µM [27]: 108%; growth at 10 µM [28]: 103%; growth at 10 µM [29]: 92.1%; growth at 10 µM [30]: 93%; growth at 10 µM [31]: 99.4%; growth at 10 µM [32]: 109%; growth at 10 µM [33]: 97.4%
Cc1cccc2cc(C3CNC(=O)c4ccccc4N3)c(=O)[nH]c12 (stereo unspecified) | 109 | 103 | 94.6 | 106 | 81.3 | 102 | 109 | 96.9 | 92 | 114 | 94.9 | 96.9 | 89.1 | 114 | 123 | 92.8 | 94.3 | 108 | 91.7 | 70 | growth at 10 µM [21]: 102%; growth at 10 µM [22]: 103%; growth at 10 µM [23]: 96%; growth at 10 µM [24]: 94.9%; growth at 10 µM [25]: 89.6%; growth at 10 µM [26]: 107%; growth at 10 µM [27]: 92.1%; growth at 10 µM [28]: 98.6%; growth at 10 µM [29]: 100%; growth at 10 µM [30]: 103%; growth at 10 µM [31]: 112%; growth at 10 µM [32]: 85.6%; growth at 10 µM [33]: 86.5%
